Assay results from article PMC11861483, “Genetic characterization of the AHAS mutant line K4 with resistance to AHAS-inhibitor herbicides in rapeseed (Brassica napus L.)” (Stress Biology, 2025).

Target: T1, BnAHAS3 (ZS9) (Brassica napus, UniProt P27819)
T1 construct: native, isolated and purified from total protein of ZS9 seedlings; AHAS on SDS-PAGE about 58-66 kD; immobilised on CM5 chip
T1 sequence (P27819 70-652): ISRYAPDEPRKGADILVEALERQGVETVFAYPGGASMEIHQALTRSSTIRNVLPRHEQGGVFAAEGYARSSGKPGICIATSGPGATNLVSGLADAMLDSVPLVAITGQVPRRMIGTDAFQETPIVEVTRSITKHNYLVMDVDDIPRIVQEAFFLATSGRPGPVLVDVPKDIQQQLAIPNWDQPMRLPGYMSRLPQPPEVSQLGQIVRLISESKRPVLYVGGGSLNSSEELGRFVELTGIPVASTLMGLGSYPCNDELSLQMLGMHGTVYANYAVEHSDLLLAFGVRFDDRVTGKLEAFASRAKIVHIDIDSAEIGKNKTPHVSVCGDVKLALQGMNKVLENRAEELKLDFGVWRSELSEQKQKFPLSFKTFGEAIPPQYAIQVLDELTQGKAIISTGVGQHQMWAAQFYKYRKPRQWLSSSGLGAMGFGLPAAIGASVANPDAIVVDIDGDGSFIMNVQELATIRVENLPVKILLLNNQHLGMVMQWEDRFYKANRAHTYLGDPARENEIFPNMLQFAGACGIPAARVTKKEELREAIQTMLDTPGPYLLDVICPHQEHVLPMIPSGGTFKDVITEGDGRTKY
Experiment: surface plasmon resonance (Biacore T200, CM5 chip), kinetic fit kd/ka
Assay type: binding
Conditions: read-out: Tribenuron-methyl / KD
Text: surface plasmon resonance (Biacore T200, CM5 chip), kinetic fit kd/ka on BnAHAS3 (ZS9)

COC(=O)c1ccccc1S(=O)(=O)NC(=O)N(C)c1nc(C)nc(OC)n1 [tribenuron-methyl]
Kd: 33 µM
